Reference: patent US20250381200A1, “SINGLE-INJECTION METHODS AND FORMULATIONS TO CONTROL THE ONSET OF ESTRUS AND OVULATION IN BOVINE, CAPRINE, OVINE, CAMELID AND OTHER FEMALE ANIMALS” (Therio, LLC, priority 2024, published 2025)
Like-named read-outs stand apart in the source and are kept apart here.

How the values were obtained:
[1] = bovine, in vivo
[2] = bovine, in vivo; remark: listed apart in the source

CC(=O)[C@H]1CC[C@H]2[C@@H]3CCC4=CC(=O)CC[C@]4(C)[C@H]3CC[C@]12C [P4, progesterone]
P4 concentration in the blood stream after decrease [1]: 0.2 to 0.6 ng/mL
P4 concentration in the blood stream, achieved and maintained [1]: 2.0 to 3.0 ng/mL
P4 concentration in the blood stream after decrease [2]: 1.0-1.5 ng per ml
P4 concentration in the blood stream, achieved within 12 hours and maintained [2]: 2.0 to 3.0 ng/mL
